Test results as given in US9173876B2, “Preparation and therapeutic applications of (2S,3R)-N-2-((3-pyridinyl)methyl)-1-azabicyclo[2.2.2]oct-3-yl)-3,5-difluorobenzamide” (Targacept, Inc., priority 2009, dated 2015).

Columns and labels:
normal rats = assay: Novel object recognition (NOR) task; assay type: in vivo, rat; conditions: for Duration of Effect, NOR (time after dosing): after 3rd administration; for Minimum Effective Dose (MED), NOR: oral, rats, follow-up study FIG. 2
Procedure: Memory was assessed by using the three-trial novel object recognition test. On the first day (exploratory trial), rats were allowed to explore an open arena (44.5×44.5×30.5 cm) for 6 min. On the second day (acquisition trial), rats were allowed to explore the same arena in the presence of two identical objects (both object A) for 3 minutes. On the third day (retention or recall trial), performance was evaluated by allowing the same animal to re-explore the arena for 3 minutes in the presence of two different objects: the familiar object A and a novel object B. An inter-trial interval of 24 hours was imposed between the three NOR trials. Recognition memory was assessed by comparing the time spent exploring a novel (object B) versus a familiar (object A) object during the recall trial. Recognition index was assessed for each animal and expressed as a ratio ((time B/time A+time B)×100).

CD-1 mice = assay: Formalin test; assay type: in vivo, mouse
Procedure: Subjects (adult male CD-1 mice (Charles River, Raleigh, N.C.) weighing approximately 20-25 grams) were removed from their home cage and weighed, then placed in a clear Plexiglas™ observation box for an acclimation period of 20-30 minutes. Mice were then removed from the observation chambers and (2S,3R)—N-2-((3-pyridinyl)methyl)-1-azabicyclo[2.2.2]oct-3-yl)-3,5-difluorobenzamide (as the hydrochloride salt in 0.9% saline) (1, 3 or 10 mg/kg s.c. (calculated with respect to the free base)), morphine (5 mg/kg; s.c.) or 0.9% saline vehicle was administered subcutaneously in a volume of 1 mL/kg. Mice were then returned to the chamber for the predetermined pretreatment time of 30 minutes for (2S,3R)—N-2-((3-pyridinyl)methyl)-1-azabicyclo[2.2.2]oct-3-yl)-3,5-difluorobenzamide and morphine.
The subject's assigned paw was grasped gently and formalin solution was injected into the paw intra-dermally in the middle on the dorsal side. Once injected, the subject was immediately returned to its observation chamber and a timer was started to mark the beginning of Phase I. Each subject was videotaped for the entire 40-minute session. […] The time spent licking during that 1 min interval was recorded, and the presence or absence of paw favoring was noted.
For data analyses, phase I of the test was defined as 0 to 5 minutes after formalin injection, and phase II was defined as 20 to 40 minutes after formalin injection. The time spent licking during the 1 minute intervals during those time frames was recorded and graphed as mean±S.E.M. For comparisons across treatment groups, 1-way analyses of variance (ANOVAs) were performed for each phase of the session with treatment as the […] variable. Post-hoc analyses were performed when appropriate to determine specific group differences.

db/db mouse = assay: Murine model of type 2 diabetes mellitus (db/db mouse); assay type: in vivo; conditions: 1.0 mg/kg oral once daily
Excerpt: The db/db mouse, a well established model of type 2 diabetes mellitus, is a leptin-deficient mutant that expresses an obese phenotype and also commonly expresses metabolic symptoms including hyperglycemia, hyperlipidemia and hyperinsulinemia (Halaas et al., 1995 and Lee et al., 1996). This experimental animal model of diabetes was employed in a study designed to determine the effects of (2S,3R)—N-2-((3-pyridinyl)methyl)-1-azabicyclo[2.2.2]oct-3-yl)-3,5-difluorobenzamide on body mass and several additional metabolic parameters.
In this study, (2S,3R)—N-2-((3-pyridinyl)methyl)-1-azabicyclo[2.2.2]oct-3-yl)-3,5-difluorobenzamide was repeatedly administered orally (via gavage) at 1.0 mg/kg once daily starting from the age of approximately 3 weeks and continuing throughout the 7-week study. Nondiabetic heterozygote littermate mice (db/+; designated “Db”) were used as controls. Body weight and food intake were determined twice weekly. The α7 antagonist methyllycaconitine (MLA) was also given concurrently via gavage at 3 mg/kg daily to selected cohorts of db/db (designated “db”) or db/+mice. At the end of the 7-week dosing regimen, total growth rates (overall body weight gain) and average daily food intake were calculated. In addition, glucose levels were assessed in mice fasted overnight. Furthermore, blood sample analytes from mice fasted overnight were collected for measurements of tumor necrosis factor-a (TNF-α), triglycerides and glycosylated hemoglobin (HbA1c). All data are expressed as mean±SEM. For each parameter investigated, differences among all groups were compared by one-way ANOVA with post-hoc Neuman-Keuls multiple comparison test.

O=C(N[C@@H]1C2CCN(CC2)[C@H]1Cc1cccnc1)c1cc(F)cc(F)c1 [Compound A]
NOR effect after single oral administration (recall only session) (normal rats; 0.28 μmol/kg oral on day 3 only): pro-cognitive effects | Recognition index (normal rats; 0.28 μmol/kg oral, 0.5 h after dosing, FIG. 3): 68±4% | Recognition index (normal rats; 0.28 μmol/kg oral, 2 h after dosing, FIG. 3): 71±2% | Recognition index (normal rats; 0.28 μmol/kg oral, 6 h after dosing, FIG. 3): 62±2% | Recognition index (normal rats; 0.28 μmol/kg oral, 24 h after acquisition trial, FIG. 1, vehicle 54±1%): 74±3% | Recognition index (normal rats; 0.84 μmol/kg oral, 0.5 h after dosing, FIG. 4): 59±2% | Recognition index (normal rats; 0.84 μmol/kg oral, 2 h after dosing, FIG. 4): 63±2% | Recognition index (normal rats; 0.84 μmol/kg oral, 6 h after dosing, FIG. 4): 68±3% | Recognition index (normal rats; 0.84 μmol/kg oral, 18 h after dosing, FIG. 4): 68±3% | Recognition index (normal rats; 0.84 μmol/kg oral, 24 h after acquisition trial, FIG. 1, vehicle 54±1%): 70±4% | Duration of Effect, NOR (time after dosing) (normal rats; 0.1 mg/kg (0.28 μmol/kg) oral, FIG. 3, listed as (2S,3R)-N-2-((3-pyridinyl)methyl)-1-azabicyclo[2.2.2]oct-3-yl)-3,5-difluorobenza): Duration 6 h (@ 0.1 mg/kg) | Duration of Effect, NOR (time after dosing) (normal rats; 0.3 mg/kg (0.84 μmol/kg) oral, FIG. 4, listed as (2S,3R)-N-2-((3-pyridinyl)methyl)-1-azabicyclo[2.2.2]oct-3-yl)-3,5-difluorobenza): Duration 18 h (@ 0.3 mg/kg) | Duration of Effect, NOR (time after dosing) (normal rats; 0.3 mg/kg (0.84 μmol/kg) oral, FIG. 4, listed as Formula I): ≤ 18 h | Doses with statistically significant effect in NOR (normal rats; NOR vs. dose, FIG. 1): ≥ 0.1 mg/kg | Doses with statistically significant effect in NOR (normal rats; minimum effective dose study, FIG. 2): ≥ 0.03 mg/kg | Minimum Effective Dose (MED), NOR (normal rats; listed as (2S,3R)-N-2-((3-pyridinyl)methyl)-1-azabicyclo[2.2.2]oct-3-yl)-3,5-difluorobenza): MED = 0.084 μmol/kg | Minimum Effective Dose (MED), NOR (normal rats; listed as (2S,3R)—N-2-((3-pyridinyl)methyl)-1-azabicyclo[2.2.2]oct-3-yl)-3,5-difluorobenza): 0.084 µmol/kg | Time spent licking the paw, phase II (CD-1 mice; 10 mg/kg s.c., 20-40 min after formalin, P<0.05): significant in reducing the time spent licking the paw | Time spent licking, phase I (CD-1 mice; 1, 3 or 10 mg/kg s.c., 0-5 min after formalin): no statistically significant dose | Time spent licking, phase I or phase II, re-scored across the entire time period (CD-1 mice; subsequent analysis of the original videotapes): failed to achieve statistical significance | All parameters measured (body weight gain, food intake, glucose, HbA1c, TNF-α, triglycerides) (db/db mouse; 7 weeks, obese db/db mice vs vehicle): significant decrease in all parameters measured | Average daily food consumption (db/db mouse; 7 weeks, obese mice vs obese controls, FIG. 16): significantly lower | Triglyceride levels (db/db mouse; 7 weeks, obese mice vs vehicle, FIG. 20): significantly lower | Total body weight gain (db/db mouse; 7 weeks, obese mice, FIG. 15): significantly lower | Fasting plasma glucose levels (db/db mouse; 7 weeks, obese mice, FIG. 17): significantly inhibited | Glycosylated HbA1c levels (db/db mouse; 7 weeks, obese mice, FIG. 18): significantly inhibited | Pro-inflammatory cytokine TNF alpha (db/db mouse; 7 weeks, obese mice, FIG. 19): significantly reduced | Food consumption (db/db mouse; lean mice (Db), FIG. 16): unaffected
